In patent US20250257045A1, “CAGED GLUTAMATE UNLEASHED BY BLUE AND GREEN LIGHT: INNOVATIVE PHOTOSENSITIVE CONTROL” (Florida Institute of Technology, Inc., priority 2024, published 2025):

Assays:
[1] = Photolysis (uncaging) kinetics under blue/green LED irradiation; quantum yield by UV and 1H NMR with ferrioxalate actinometry; type: physicochemical; settings: for Φ (quantum yield / QE of uncaging): irradiation at 467 nm (TC) or 520 nm (BODIPY), LED flux 12.8 Wm-2, 23° C.; for εΦ (photo-cross-section): product of ε and Φ; for wavelength of visible light that activates / uncages the cage: single photon visible light
Description: (§1) After purification, the organic solvent was removed by rotovap under vacuum and the remaining aqueous concentrate was subjected to a freeze-drying system (lyophilizer-Freezone 4.5 made by LABCONCO) to isolate the purified final product. The preparation of the caged compounds and their corresponding purifications were conducted under red light in the dark. Final products were covered with aluminum foil and stored at −20° C. until further needed. Each product was characterized by Proton Nuclear Magnetic Resonance (hereinafter “1H NMR”) and Carbon-13 Nuclear Magnetic Resonance (hereinafter “^13C NMR”) using Bruker 400 MHZ NMR spectrometer instrumentation. NMR solvents such as CDCl3 and (CD3)2CO were purchased from the Cambridge Isotope Laboratories. Chemical shifts were reported relative to the internal standard peak of tetramethylsilane (TMS). […] Referring to FIG. 10, irradiation rigs constructed of two round metal containers stacked with blue LED strips (467 nm) and green LED strips (520 nm) on their inner walls were used as photoreactors to irradiate the caged molecules in photochemical studies. The light flux was determined using liquid-phase potassium ferrioxalate actinomentry.
The inventors studied the kinetics of uncaging of the two caged Glu designs (TC and BODIPY) and compared their efficiency of uncaging under identical conditions. They were irradiated with blue light at 467 nm and green light at 520 nm, respectively. Referring to FIG. 10, a temperature-controlled rig with purchased LED strips was set up.
The process for conducting the irradiation experiments comprised the following:
Sample Preparation: The caged molecules (containing the BODIPY photocage and Glutamate) were prepared in a solvent at a predetermined concentration. The solution was carefully prepared to ensure uniform dispersion of the molecules.
Irradiation Setup: The irradiation experiments were performed in a custom-built irradiation chamber equipped with the necessary safety measures (FIG. 10). The chamber was designed to prevent any unwanted exposure to the irradiation source and to maintain a controlled environment throughout the experiment.
Irradiation Source: The irradiation source used was from LED light Strips. This source was selected based on its wavelength range, intensity, and compatibility with the caged molecules' photochemistry. The source was positioned within the irradiation chamber to ensure an even and consistent illumination of the sample.
Sample Exposure: The sample solution was placed in a suitable container, ensuring that the solution thickness was uniform to minimize potential variations in the irradiation process. The container was positioned at a specific distance from the irradiation source, and the entire setup was shielded from external light sources to prevent interference.
Irradiation Protocol: The sample was irradiated for a predetermined duration, with the irradiation source emitting light at the desired wavelength range. The irradiation time was carefully controlled to maintain consistency across experiments.
Monitoring and Data Collection: Throughout the irradiation process, the changes in the sample's properties were monitored using spectroscopic techniques such as UV-Vis spectroscopy and NMR spectroscopy, depending on the specific properties being investigated. Data was collected at regular intervals to track the progress of the photochemical reaction.
Control Experiments: To validate the effects of irradiation, control experiments were conducted using identical conditions but without the presence of the caged molecules.
The quantification of the laser flux comprised the following:
A liquid-phase potassium ferrioxalate actinometer was prepared to measure the intensity of light in our irradiation rig, i.e., light flux, necessary for measurement of the quantum yields of various photochemical reactions.

[2] = UV-Vis absorption of caged Glu compounds; type: physicochemical; settings: for λMax: maximum absorbance wavelength; for ε(λMax): molar attenuation constant at λMax
Description: as §1
Referring to FIG. 6, a comprehensive assessment of 11 visible light-activated caged Glutamate (Glu) compounds was conducted using photophysical methods.

[3] = prior art caged Glu; cited from earlier work

Φ (quantum yield / QE of uncaging) [1]	εΦ (photo-cross-section) [1] [M⁻¹ cm⁻¹]	λMax [2] [nm]	ε(λMax) [2] [M⁻¹ cm⁻¹]	Φ (quantum yield / QE of uncaging) [1]; 8	Φ (quantum yield / QE of uncaging) ([1]; listed as Me-BODIPY-Br-Glu)	Molecule	wavelength of visible light that activates / uncages the cage [1] [nm]	absorption maximum [3] [nm]	quantum yield (Φ) [3]
–	–	–	–	–	–	N[C@@H](CCC(=O)N1CCc2c(OCC(=O)O)c([N+](=O)[O-])cc([N+](=O)[O-])c21)C(=O)O [CDNI-Glu]	–	350	0.5
0.0004 ± 0.00001	4.2	544	10300 ± 80	–	–	CC1=C(Br)C(C)=[N+]2C1=C(COC(=O)CCC(N)C(=O)O)c1c(C)c(Br)c(C)n1[B-]2(F)F (centres unmarked) [F-BODIPY-Br-Glu (11), 2-Amino-5-((2,8-dibromo-5,5-difluoro-1,3,7,9-tetramethyl-5H-414,514-dipyrrolo[1,2-c: 2′, 1′-f] [1,3,2]diazaborinin-10-yl)methoxy)-5-oxopentanoic acid]	–	–	–
0.0077 ± 0.0004	439.0	542	57200 ± 280	–	–	CCC1=C(C)C2=C(COC(=O)CCC(N)C(=O)O)c3c(C)c(CC)c(C)n3[B-](F)(F)[N+]2=C1C (centres unmarked) [F-BODIPY-Et-Glu (10), 2-Amino-5-((2,8-diethyl-5,5-difluoro-1,3,7,9-tetramethyl-5H-414,514-dipyrrolo[1,2-c: 2′, 1′-f] [1,3,2]diazaborinin-10-yl)methoxy)-5-oxopentanoic acid]	–	–	–
0.0001 ± 0.00001	10.9	542	78300 ± 400	–	–	CCC1=C(C)C2=C(COC(=O)NC(CCC(=O)O)C(=O)O)c3c(C)c(CC)c(C)n3[B-](F)(F)[N+]2=C1C (centres unmarked) [F-BODIPY-Et-N-Glu (5), (((2,8-Diethyl-5,5-difluoro-1,3,7,9-tetramethyl-5H-414,514-dipyrrolo[1,2-c: 2′, 1′-f] [1,3,2]diazaborinin-10-yl)methoxy)carbonyl) glutamic acid]	–	–	–
0.0001 ± 0.00002	4.7	517	84600 ± 500	–	–	CC1=CC(C)=[N+]2C1=C(COC(=O)CCC(N)C(=O)O)c1c(C)cc(C)n1[B-]2(F)F (centres unmarked) [F-BODIPY-H-Glu (9), 2-Amino-5-((5,5-difluoro-1,3,7,9-tetramethyl-5H-414,514-dipyrrolo[1,2-c: 2′, 1′-f] [1,3,2]diazaborinin-10-yl)methoxy)-5-oxopentanoic acid]	–	–	–
0.65 ± 0.01	35230.0	531	54200 ± 240	0.65	0.65	CC1=C(Br)C(C)=[N+]2C1=C(COC(=O)CCC(N)C(=O)O)c1c(C)c(Br)c(C)n1[B-]2(C)C (centres unmarked) [Me-BODIPY-Br-Glu (8), 2-Amino-5-((2,8-dibromo-1,3,5,5,7,9-hexamethyl-5H-414,514-dipyrrolo[1,2-c: 2′, 1′-f] [1,3,2]diazaborinin-10-yl)methoxy)-5-oxopentanoic acid]	540	–	–
0.12 ± 0.04	985.6	532	8213 ± 50	–	–	CC1=C(Br)C(C)=[N+]2C1=C(COC(=O)NC(CCC(=O)O)C(=O)O)c1c(C)c(Br)c(C)n1[B-]2(C)C (centres unmarked) [Me-BODIPY-Br-N-Glu (3), (((2,8-Dibromo-1,3,5,5,7,9-hexamethyl-5H-414,514-dipyrrolo[1,2-c: 2′, 1′-f] [1,3,2]diazaborinin-10-yl)methoxy)carbonyl) glutamic acid]	–	–	–
0.029 ± 0.001	1040.0	532	35700 ± 180	–	–	CCC1=C(C)C2=C(COC(=O)CCC(N)C(=O)O)c3c(C)c(CC)c(C)n3[B-](C)(C)[N+]2=C1C (centres unmarked) [Me-BODIPY-Et-Glu (7), 2-Amino-5-((2,8-diethyl-1,3,5,5,7,9-hexamethyl-5H-414,514-dipyrrolo[1,2-c: 2′, 1′-f] [1,3,2]diazaborinin-10-yl)methoxy)-5-oxopentanoic acid]	–	–	–
0.095 ± 0.003	2270.0	532	24000 ± 120	–	–	CCC1=C(C)C2=C(COC(=O)NC(CCC(=O)O)C(=O)O)c3c(C)c(CC)c(C)n3[B-](C)(C)[N+]2=C1C (centres unmarked) [Me-BODIPY-Et-N-Glu (2), (((2,8-Diethyl-1,3,5,5,7,9-hexamethyl-5H-414,514-dipyrrolo[1,2-c: 2′, 1′-f] [1,3,2]diazaborinin-10-yl)methoxy)carbonyl) glutamic acid]	–	–	–
0.074 ± 0.002	3230.0	511	43600 ± 200	–	–	CC1=CC(C)=[N+]2C1=C(COC(=O)CCC(N)C(=O)O)c1c(C)cc(C)n1[B-]2(C)C (centres unmarked) [Me-BODIPY-H-Glu (6), 2-Amino-5-((1,3,5,5,7,9-hexamethyl-5H-414,514-dipyrrolo[1,2-c: 2′, 1′-f] [1,3,2]diazaborinin-10-yl)methoxy)-5-oxopentanoic acid]	–	–	–
0.15 ± 0.01	1504.6	536	10030 ± 70	–	–	CC1=C(I)C(C)=[N+]2C1=C(COC(=O)NC(CCC(=O)O)C(=O)O)c1c(C)c(I)c(C)n1[B-]2(C)C (centres unmarked) [Me-BODIPY-I-N-Glu (4), (((2,8-Diiodo-1,3,5,5,7,9-hexamethyl-5H-414,514-dipyrrolo[1,2-c: 2′, 1′-f] [1,3,2]diazaborinin-10-yl)methoxy)carbonyl) glutamic acid]	–	–	–

Molecule	Φ (quantum yield / QE of uncaging) [1]	εΦ (photo-cross-section) [1] [M⁻¹ cm⁻¹]	λMax [2] [nm]	ε(λMax) [2] [M⁻¹ cm⁻¹]	Φ (quantum yield / QE of uncaging) [1]; 8	Φ (quantum yield / QE of uncaging) ([1]; listed as Me-BODIPY-Br-Glu)	wavelength of visible light that activates / uncages the cage [1] [nm]	absorption maximum [3] [nm]	quantum yield (Φ) [3]
7-Diethylamino-4-carboxylmethyl-thiocoumarin glutamate [TC-N-Glu (1)]	0.0017 ± 0.0002	38.2	461	21800 ± 100	–	–	445	–	–
